According to paper PMC5218480 (PLoS ONE, 2017):

Tested on: MV-4-11 cells
Assay: Gene expression microarray analysis (Affymetrix PrimeView) and GSEA
Type: cell-based, human
Parameters: RFU PODN (11730768_x_at) / Fold change /veh PODN (11730768_x_at) / RFU LINC00158 (11744669_a_at) / Fold change /veh LINC00158 (11744669_a_at) / RFU DUSP10 (11751237_a_at) / Fold change /veh DUSP10 (11751237_a_at) / RFU ID3 (11757404_x_at) / Fold change /veh ID3 (11757404_x_at) / RFU PLEKHG5 (11737974_s_at) / Fold change /veh PLEKHG5 (11737974_s_at) / RFU LRRC4B (11730491_at) / Fold change /veh LRRC4B (11730491_at) / RFU GIMAP4 (11747438_a_at) / Fold change /veh GIMAP4 (11747438_a_at) / RFU KRT8 (11758183_x_at) / Fold change /veh KRT8 (11758183_x_at) / RFU CNN1 (11734310_a_at) / Fold change /veh CNN1 (11734310_a_at) / RFU VPS37D (11726825_at) / Fold change /veh VPS37D (11726825_at) / RFU C10orf10 (11716522_x_at) / Fold change /veh C10orf10 (11716522_x_at) / RFU KIR2DL2 /// KIR2DL4 /// KIR2DL5A /// KIR2DL5B /// KIR2DS1 /// KIR2DS2 /// KIR2DS3 /// KIR2DS4 /// KIR3DL3 /// KIR3DL3 /// KIR3DS1 (11738374_at) / Fold change /veh KIR2DL2 /// KIR2DL4 /// KIR2DL5A /// KIR2DL5B /// KIR2DS1 /// KIR2DS2 /// KIR2DS3 /// KIR2DS4 /// KIR3DL3 /// KIR3DL3 /// KIR3DS1 (11738374_at) / RFU C1QL1 (11718748_at) / Fold change /veh C1QL1 (11718748_at) / RFU TMPRSS4 (11747572_a_at) / Fold change /veh TMPRSS4 (11747572_a_at) / RFU HAMP (11756126_x_at) / Fold change /veh HAMP (11756126_x_at) / RFU RNFT2 (11725882_a_at) / Fold change /veh RNFT2 (11725882_a_at) / RFU NR4A2 (11747474_a_at) / Fold change /veh NR4A2 (11747474_a_at) / RFU ABCC12 (11746883_a_at) / Fold change /veh ABCC12 (11746883_a_at) / RFU TMEM136 (11760407_x_at) / Fold change /veh TMEM136 (11760407_x_at) / RFU CLDN22 /// WWC2 (11732394_at) / Fold change /veh CLDN22 /// WWC2 (11732394_at) / RFU HLA-DPB1 (11760878_x_at) / Fold change /veh HLA-DPB1 (11760878_x_at) / RFU SPINT1 (11716480_a_at) / Fold change /veh SPINT1 (11716480_a_at) / RFU GAP43 (11754022_s_at) / Fold change /veh GAP43 (11754022_s_at) / RFU A4GNT (11735810_at) / Fold change /veh A4GNT (11735810_at) / RFU PRB3 (11715151_x_at) / Fold change /veh PRB3 (11715151_x_at) / RFU TUBB4B (11761932_at) / Fold change /veh TUBB4B (11761932_at) / RFU CAPN14 (11732068_a_at) / Fold change /veh CAPN14 (11732068_a_at) / RFU TMCC2 (11721928_a_at) / Fold change /veh TMCC2 (11721928_a_at) / RFU IRGQ (11745062_a_at) / Fold change /veh IRGQ (11745062_a_at) / RFU FAM174B (11720279_a_at) / Fold change /veh FAM174B (11720279_a_at) / RFU TMPRSS4 (11748680_a_at) / Fold change /veh TMPRSS4 (11748680_a_at) / RFU FAM212B (11763350_a_at) / Fold change /veh FAM212B (11763350_a_at) / RFU PLEKHG5 (11743358_a_at) / Fold change /veh PLEKHG5 (11743358_a_at) / RFU ZSCAN30 (11745921_a_at) / Fold change /veh ZSCAN30 (11745921_a_at) / RFU CMKLR1 (11741424_a_at) / Fold change /veh CMKLR1 (11741424_a_at) / RFU LOC101060620 /// MAPK8IP1 (11723275_at) / Fold change /veh LOC101060620 /// MAPK8IP1 (11723275_at) / RFU SPTSSB (11747773_x_at) / Fold change /veh SPTSSB (11747773_x_at) / RFU PRSS12 (11739890_at) / Fold change /veh PRSS12 (11739890_at) / RFU BIN1 (11741810_x_at) / Fold change /veh BIN1 (11741810_x_at) / RFU WNT11 (11732464_a_at) / Fold change /veh WNT11 (11732464_a_at) / RFU C10orf10 (11716521_a_at) / Fold change /veh C10orf10 (11716521_a_at) / RFU C5orf56 (11738089_at) / Fold change /veh C5orf56 (11738089_at) / RFU CYB561 (11721691_x_at) / Fold change /veh CYB561 (11721691_x_at) / RFU ANKRD19P (11752326_a_at) / Fold change /veh ANKRD19P (11752326_a_at) / RFU OR2T12 /// OR2T33 /// OR2T8 (11738714_s_at) / Fold change /veh OR2T12 /// OR2T33 /// OR2T8 (11738714_s_at) / RFU VCAN (11748164_a_at) / Fold change /veh VCAN (11748164_a_at) / RFU JSRP1 (11732532_at) / Fold change /veh JSRP1 (11732532_at) / RFU KRTAP10-11 (11738290_x_at) / Fold change /veh KRTAP10-11 (11738290_x_at) / RFU MYO3A (11730013_a_at) / Fold change /veh MYO3A (11730013_a_at) / RFU EBF3 (11725865_a_at) / Fold change /veh EBF3 (11725865_a_at) / RFU CAMK2N1 (11719241_x_at) / Fold change /veh CAMK2N1 (11719241_x_at) / RFU C5orf56 (11738088_a_at) / Fold change /veh C5orf56 (11738088_a_at) / RFU OLFML3 (11715873_a_at) / Fold change /veh OLFML3 (11715873_a_at) / RFU LOC100653217 /// NTM (11731650_a_at) / Fold change /veh LOC100653217 /// NTM (11731650_a_at) / RFU MAPK11 (11762145_a_at) / Fold change /veh MAPK11 (11762145_a_at) / RFU FIZ1 (11724087_x_at) / Fold change /veh FIZ1 (11724087_x_at) / RFU OASL (11726364_x_at) / Fold change /veh OASL (11726364_x_at) / RFU SOX15 (11748057_x_at) / Fold change /veh SOX15 (11748057_x_at) / RFU CD79A (11719716_a_at) / Fold change /veh CD79A (11719716_a_at) / RFU HIST1H1D (11736915_at) / Fold change /veh HIST1H1D (11736915_at) / RFU CASKIN2 (11723855_a_at) / Fold change /veh CASKIN2 (11723855_a_at) / RFU LOC730098 (11760151_x_at) / Fold change /veh LOC730098 (11760151_x_at) / RFU OR4N2 (11742367_at) / Fold change /veh OR4N2 (11742367_at) / RFU PRRT2 (11749266_a_at) / Fold change /veh PRRT2 (11749266_a_at) / RFU SNX32 (11753110_a_at) / Fold change /veh SNX32 (11753110_a_at) / RFU CDHR5 (11726645_a_at) / Fold change /veh CDHR5 (11726645_a_at) / RFU RCAN1 (11760418_a_at) / Fold change /veh RCAN1 (11760418_a_at) / RFU FAM167A (11723789_a_at) / Fold change /veh FAM167A (11723789_a_at) / RFU FAM26E (11764081_at) / Fold change /veh FAM26E (11764081_at) / RFU ISYNA1 (11749810_s_at) / Fold change /veh ISYNA1 (11749810_s_at) / RFU ACY1 (11761880_at) / Fold change /veh ACY1 (11761880_at) / RFU 11764098_at / Fold change /veh 11764098_at / RFU SAMD14 (11745864_x_at) / Fold change /veh SAMD14 (11745864_x_at) / RFU NPB (11741838_a_at) / Fold change /veh NPB (11741838_a_at) / RFU TMPRSS6 (11731388_a_at) / Fold change /veh TMPRSS6 (11731388_a_at) / RFU KRTAP10-2 (11738614_at) / Fold change /veh KRTAP10-2 (11738614_at) / RFU ARHGAP8 /// PRR5-ARHGAP8 (11727945_x_at) / Fold change /veh ARHGAP8 /// PRR5-ARHGAP8 (11727945_x_at) / RFU KRTAP5-7 /// NADSYN1 (11734609_at) / Fold change /veh KRTAP5-7 /// NADSYN1 (11734609_at) / RFU RASL12 (11751679_a_at) / Fold change /veh RASL12 (11751679_a_at) / RFU CDKN2B (11736163_a_at) / Fold change /veh CDKN2B (11736163_a_at) / RFU PRF1 (11729649_at) / Fold change /veh PRF1 (11729649_at) / RFU, ZNF638 /// ZNF638-IT1 / Fold change vs veh, ZNF638 /// ZNF638-IT1 / RFU, PANK3 / Fold change vs veh, PANK3 / RFU, SH3YL1 / Fold change vs veh, SH3YL1 / RFU, ZEB2 / Fold change vs veh, ZEB2 / RFU, NRIP1 / Fold change vs veh, NRIP1 / RFU, PTTG1IP / Fold change vs veh, PTTG1IP / RFU, CAPN2 / Fold change vs veh, CAPN2 / RFU, MED14 / Fold change vs veh, MED14 / RFU, SNORA58 / Fold change vs veh, SNORA58 / RFU, C1orf63 / Fold change vs veh, C1orf63 / RFU, LRRFIP1 / Fold change vs veh, LRRFIP1 / RFU, NDUFAF7 / Fold change vs veh, NDUFAF7 / RFU, SLC12A2 / Fold change vs veh, SLC12A2 / RFU, IBTK / Fold change vs veh, IBTK / RFU, ESF1 / Fold change vs veh, ESF1 / Fold change vs veh, TMEM50B / RFU, TAOK1 / Fold change vs veh, TAOK1 / RFU, ACBD3 / Fold change vs veh, ACBD3 / RFU, TMA16 / Fold change vs veh, TMA16 / RFU, RWDD3 / Fold change vs veh, RWDD3 / RFU, BCAT1 / Fold change vs veh, BCAT1 / RFU, EDEM3 / Fold change vs veh, EDEM3 / RFU, TMEM33 / Fold change vs veh, TMEM33 / RFU, WDR75 / Fold change vs veh, WDR75 / RFU, AHCTF1 / Fold change vs veh, AHCTF1 / RFU, TFRC / Fold change vs veh, TFRC / RFU, ZDHHC17 / Fold change vs veh, ZDHHC17 / RFU, NOM1 / Fold change vs veh, NOM1 / RFU, ARL8B / Fold change vs veh, ARL8B / RFU, ZBTB11 / Fold change vs veh, ZBTB11 / RFU, TAMM41 / Fold change vs veh, TAMM41 / RFU, KIAA1704 /// LOC100996395 / Fold change vs veh, KIAA1704 /// LOC100996395 / RFU, ING1 / Fold change vs veh, ING1 / RFU, TRMT61B / Fold change vs veh, TRMT61B / RFU, FUBP3 / Fold change vs veh, FUBP3 / RFU, TP53 / Fold change vs veh, TP53 / RFU, TNKS2 / Fold change vs veh, TNKS2 / RFU, ZFP14 / Fold change vs veh, ZFP14 / RFU, ACTR2 / Fold change vs veh, ACTR2 / RFU, PPP3R1 / Fold change vs veh, PPP3R1 / RFU, PIK3R1 / Fold change vs veh, PIK3R1 / RFU, HNRNPA1 / Fold change vs veh, HNRNPA1 / RFU, RNF170 / Fold change vs veh, RNF170 / RFU, ZNF28 / Fold change vs veh, ZNF28 / RFU, RNGTT / Fold change vs veh, RNGTT / RFU, OGT / Fold change vs veh, OGT / RFU, BRD1 / Fold change vs veh, BRD1 / RFU, MARS / Fold change vs veh, MARS / RFU, ZNF655 / Fold change vs veh, ZNF655 / RFU, FAHD1 / Fold change vs veh, FAHD1 / RFU, BDP1 / Fold change vs veh, BDP1 / RFU, LRRCC1 / Fold change vs veh, LRRCC1 / RFU, ARID1A / Fold change vs veh, ARID1A / RFU, ZNF146 / Fold change vs veh, ZNF146 / RFU, ZNF330 / Fold change vs veh, ZNF330 / RFU, GPN3 / Fold change vs veh, GPN3 / RFU, C9orf123 / Fold change vs veh, C9orf123 / RFU, N4BP2L2 / Fold change vs veh, N4BP2L2 / RFU, ARFIP1 / Fold change vs veh, ARFIP1 / RFU, FAM179B / Fold change vs veh, FAM179B / RFU, BCL10 / Fold change vs veh, BCL10 / RFU, UHRF1BP1L / Fold change vs veh, UHRF1BP1L / RFU, BET1 / Fold change vs veh, BET1 / RFU, CNOT2 / Fold change vs veh, CNOT2 / RFU, ZNF268 / Fold change vs veh, ZNF268 / Fold change vs veh, ZNF507 / RFU, DGCR2 / Fold change vs veh, DGCR2 / RFU, WDSUB1 / Fold change vs veh, WDSUB1 / Fold change vs veh, HSP90B1 /// MIR3652 / RFU, ADSS / Fold change vs veh, ADSS / RFU, GK / Fold change vs veh, GK / RFU, ZNF148 / Fold change vs veh, ZNF148 / RFU, TAF9 / Fold change vs veh, TAF9 / RFU, SLC1A5 / Fold change vs veh, SLC1A5 / RFU, SLMO2 / Fold change vs veh, SLMO2 / RFU, ABCC4 / Fold change vs veh, ABCC4 / RFU, LOC101060439 /// RAP1B / Fold change vs veh, LOC101060439 /// RAP1B / RFU, RFX7 / Fold change vs veh, RFX7 / RFU, GTPBP10 / Fold change vs veh, GTPBP10 / RFU, CNEP1R1 / Fold change vs veh, CNEP1R1 / RFU, BIVM-ERCC5 /// ERCC5 / Fold change vs veh, BIVM-ERCC5 /// ERCC5 / RFU, ILF3 / Fold change vs veh, ILF3 / RFU 11762660_at / Fold change /veh 11762660_at / RFU VCAN (11757783_s_at) / Fold change /veh VCAN (11757783_s_at) / RFU DDX43 (11728927_at) / Fold change /veh DDX43 (11728927_at) / RFU KRT8 (11758188_x_at) / Fold change /veh KRT8 (11758188_x_at) / RFU NKD1 (11759106_at) / Fold change /veh NKD1 (11759106_at) / RFU SRD5A1 (11742802_a_at) / Fold change /veh SRD5A1 (11742802_a_at) / RFU TPSAB1 /// TPSB2 (11721975_s_at) / Fold change /veh TPSAB1 /// TPSB2 (11721975_s_at) / RFU GSTM3 (11746129_a_at) / Fold change /veh GSTM3 (11746129_a_at) / RFU IL23R (11737362_x_at) / Fold change /veh IL23R (11737362_x_at) / RFU TMEM51 (11727254_a_at) / Fold change /veh TMEM51 (11727254_a_at) / RFU PIWIL2 (11732686_x_at) / Fold change /veh PIWIL2 (11732686_x_at) / RFU ORM1 (11744905_x_at) / Fold change /veh ORM1 (11744905_x_at) / RFU CCDC152 (11743942_at) / Fold change /veh CCDC152 (11743942_at) / RFU ECM1 (11717891_a_at) / Fold change /veh ECM1 (11717891_a_at) / RFU IL23R (11748794_a_at) / Fold change /veh IL23R (11748794_a_at) / RFU TNFAIP8L3 (11732012_x_at) / Fold change /veh TNFAIP8L3 (11732012_x_at) / RFU MBOAT4 (11741988_at) / Fold change /veh MBOAT4 (11741988_at) / RFU 11764193_at / Fold change /veh 11764193_at / RFU TMEM53 (11763286_at) / Fold change /veh TMEM53 (11763286_at) / RFU MAGEB2 (11727129_at) / Fold change /veh MAGEB2 (11727129_at) / RFU TMEM200A (11744735_a_at) / Fold change /veh TMEM200A (11744735_a_at) / RFU CCDC152 (11751479_a_at) / Fold change /veh CCDC152 (11751479_a_at) / RFU FAM211A (11726209_a_at) / Fold change /veh FAM211A (11726209_a_at) / RFU RGS16 (11746705_a_at) / Fold change /veh RGS16 (11746705_a_at) / RFU VCAN (11755009_s_at) / Fold change /veh VCAN (11755009_s_at) / RFU RHOB (11743442_s_at) / Fold change /veh RHOB (11743442_s_at) / RFU RGS16 (11720943_a_at) / Fold change /veh RGS16 (11720943_a_at) / RFU RGS16 (11720944_at) / Fold change /veh RGS16 (11720944_at) / RFU, VPS4B / Fold change vs veh, VPS4B / RFU, CREB1 / Fold change vs veh, CREB1 / RFU, DNAJC13 / Fold change vs veh, DNAJC13 / RFU, GNAQ / Fold change vs veh, GNAQ / RFU, CDK5R1 / Fold change vs veh, CDK5R1 / RFU, ZRANB3 / Fold change vs veh, ZRANB3 / RFU, CUL4A / Fold change vs veh, CUL4A / RFU, CCNY / Fold change vs veh, CCNY / RFU, UFL1 / Fold change vs veh, UFL1 / RFU, COG3 / Fold change vs veh, COG3 / RFU, DIAPH2 / Fold change vs veh, DIAPH2 / RFU, SKA2 / Fold change vs veh, SKA2 / RFU, AFF3 / Fold change vs veh, AFF3 / RFU, LMF1 / Fold change vs veh, LMF1 / RFU, IPO11 / Fold change vs veh, IPO11 / RFU, DFFB / Fold change vs veh, DFFB / RFU, FOXP1 / Fold change vs veh, FOXP1 / RFU, CARD8 / Fold change vs veh, CARD8 / RFU, STRN3 / Fold change vs veh, STRN3 / RFU, ADK / Fold change vs veh, ADK / RFU, RASSF2 / Fold change vs veh, RASSF2 / RFU, WIPF1 / Fold change vs veh, WIPF1 / RFU, LARP1B / Fold change vs veh, LARP1B / RFU, RASA1 / Fold change vs veh, RASA1 / RFU, RB1 / Fold change vs veh, RB1 / RFU, PPFIA1 / Fold change vs veh, PPFIA1 / RFU, MAT2A / Fold change vs veh, MAT2A / RFU, CCT5 / Fold change vs veh, CCT5 / RFU, WDR92 / Fold change vs veh, WDR92 / RFU, CUX1 / Fold change vs veh, CUX1 / RFU, TTC7A / Fold change vs veh, TTC7A / RFU, TMEM135 / Fold change vs veh, TMEM135 / RFU, DEPTOR / Fold change vs veh, DEPTOR / RFU, CPM / Fold change vs veh, CPM / RFU, DNAJB6 / Fold change vs veh, DNAJB6 / RFU, CACNA2D3 / Fold change vs veh, CACNA2D3 / RFU, DTX4 / Fold change vs veh, DTX4 / RFU, TFCP2 / Fold change vs veh, TFCP2 / RFU, GMCL1 /// GMCL1P1 / Fold change vs veh, GMCL1 /// GMCL1P1 / RFU, AEBP2 / Fold change vs veh, AEBP2 / RFU, SNHG1 /// SNORD22 /// SNORD25 /// SNORD26 /// SNORD27 /// SNORD28 /// SNORD29 /// SNORD31 / Fold change vs veh, SNHG1 /// SNORD22 /// SNORD25 /// SNORD26 /// SNORD27 /// SNORD28 /// SNORD29 /// SNORD31 / Fold change (Aza/veh), C12orf56 (ProbeSet 11735607_a_at) / Fold change (ACY-1035/veh), C12orf56 (ProbeSet 11735607_a_at) / Fold change (Aza/veh), FGFR1OP (ProbeSet 11751329_s_at) / Fold change (ACY-1035/veh), FGFR1OP (ProbeSet 11751329_s_at) / Fold change (Aza/veh), VPS36 (ProbeSet 11739960_a_at) / Fold change (ACY-1035/veh), VPS36 (ProbeSet 11739960_a_at) / RFU SYPL1 (11715823_x_at) / Fold change /veh SYPL1 (11715823_x_at) / RFU IGFBP7 (11715501_s_at) / Fold change /veh IGFBP7 (11715501_s_at) / RFU REEP3 (11722064_at) / Fold change /veh REEP3 (11722064_at) / RFU IGLL1 (11728026_x_at) / Fold change /veh IGLL1 (11728026_x_at): dose or concentration left out as unconfirmed
Details: ProbeSet 11746640_a_at; LIST D

Nc1ncn([C@@H]2O[C@H](CO)[C@@H](O)[C@H]2O)c(=O)n1 [azacitidine]
Fold change vs veh, RASSF2: 0.77
